Eleven molecules from patent US6340689B1 (priority 1999, dated 2002) can be followed below.

In test [1] the test system is Erythromycin-resistant Legionella spp. other than L. pneumophila. Type of test: cell-based.
Test [2] relates to Erythromycin-resistant L. pneumophila. Type of test: cell-based, Legionella pneumophila.

Take `CO/N=C1\CN(c2nc3c(cc2F)c(=O)c(C(=O)O)cn3C2CC2)CC1CN` (racemic) [Gemifloxacin, (R,S)-7-(3-aminomethyl-4-methoxyiminopyrrolidin-1-yl)-1-cyclopropyl-6-fluoro-4-oxo-1,4-dihydro-1,8-naphthyridine-3-carboxylic acid]: the figures for the “Mean PAE” value in test [1] and in test [2] were 3.34 ± 2 h and 4.65 ± 3 h, respectively. In test [2], the “PAE (mean PAE)” value came to 4.65 h.

As to `CC[C@H]1OC(=O)[C@H](C)[C@@H](O[C@H]2C[C@@](C)(OC)[C@@H](O)[C@H](C)O2)[C@H](C)[C@@H](O[C@@H]2O[C@H](C)C[C@H](N(C)C)[C@H]2O)[C@](C)(O)C[C@@H](C)CN(C)[C@H](C)[C@@H](O)[C@]1(C)O` [Azithromycin], the figures for the “Mean PAE” value in test [1] and in test [2] were 2.13 ± 1 h and 2.16 ± 1 h, respectively.

Take `O=C(O)c1cn(C2CC2)c2cc(N3CCNCC3)c(F)cc2c1=O` [Ciprofloxacin]: the “Mean PAE” value in test [1] is 2.13 ± 3 h; in test [2], 2.86 ± 2 h.

For `CC[C@H]1OC(=O)[C@H](C)[C@@H](O[C@H]2C[C@@](C)(OC)[C@@H](O)[C@H](C)O2)[C@H](C)[C@@H](O[C@@H]2O[C@H](C)C[C@H](N(C)C)[C@H]2O)[C@](C)(OC)C[C@@H](C)C(=O)[C@H](C)[C@@H](O)[C@]1(C)O` [Clarithromycin], the “Mean PAE” value is reported as 1.60 ± 2 h in test [1] and 1.90 ± 1 h in test [2]. Also, the PAE in test [2] came to 1.9 h.

Turning to `CC[C@H]1OC(=O)[C@H](C)[C@@H](O[C@H]2C[C@@](C)(OC)[C@@H](O)[C@H](C)O2)[C@H](C)[C@@H](O[C@@H]2O[C@H](C)C[C@H](N(C)C)[C@H]2O)[C@](C)(O)C[C@@H](C)C(=O)[C@H](C)[C@@H](O)[C@]1(C)O` [Erythromycin], the “Mean PAE” value in test [1] came out at 0.44 ± 1 h; in test [2], 0.90 ± 1 h.

In the case of `Cc1c(F)c(N2CCNC(C)C2)cc2c1c(=O)c(C(=O)O)cn2C1CC1` (centres unmarked) [Grepafloxacin], the “Mean PAE” value in test [1] was determined as 3.67 ± 1 h. Also, in test [2], the “Mean PAE” value is recorded as 4.18 ± 3 h and the “PAE (mean PAE)” value came out at 4.18 h.

`C[C@H]1COc2c(N3CCN(C)CC3)c(F)cc3c(=O)c(C(=O)O)cn1c23` [Levofloxacin]: the “Mean PAE” value is reported as 3.24 ± 1 h in test [1] and 2.59 ± 2 h in test [2]. In test [2], the PAE came to 2.59 h.

Regarding `COc1c(N2C[C@@H]3CCCN[C@@H]3C2)c(F)cc2c(=O)c(C(=O)O)cn(C3CC3)c12` [Moxifloxacin], the “Mean PAE” value in test [1] is recorded as 2.02 ± 1 h; in test [2], 3.38 ± 2 h. Besides, the “PAE (mean PAE)” value in test [2] worked out at 3.38 h.

Regarding `CC1COc2c(N3CCN(C)CC3)c(F)cc3c(=O)c(C(=O)O)cn1c23` (centres unmarked) [Ofloxacin], the “Mean PAE” value in test [1] came to 4.13 ± 2 h; in test [2], 2.99 ± 1 h.

With `CO[C@H]1/C=C/O[C@@]2(C)Oc3c(C)c(O)c4c(O)c(c(/C=N/N5CCN(C)CC5)c(O)c4c3C2=O)NC(=O)/C(C)=C\C=C\[C@H](C)[C@H](O)[C@@H](C)[C@@H](O)[C@@H](C)[C@H](OC(C)=O)[C@@H]1C` [Rifampicin], the “Mean PAE” value in test [1] turned out to be 5.6 ± 3 h. In test [2], the “Mean PAE” value worked out at 0.93 ± 4 h and the PAE is listed as 0.9 h.

In the case of `N[C@@H]1[C@H]2CN(c3nc4c(cc3F)c(=O)c(C(=O)O)cn4-c3ccc(F)cc3F)C[C@@H]12` [Trovafloxacin], the “Mean PAE” value in test [1] is listed as 2.25 ± 2 h. Besides, in test [2], the “Mean PAE” value amounted to 2.83 ± 2 h and the “PAE (mean PAE)” value worked out at 2.83 h.
